The IC50 is the concentration that gives 50% inhibition.

Active and inactive are the calls of the source. No cut-off for these calls is given here.

Here are results for one compound from ChEMBL document CHEMBL4680347, “Discovery of novel 1,3,5-triazine derivatives as potent inhibitor of cervical cancer via dual inhibition of PI3K/mTOR” (Bioorg Med Chem, 2021).

For test [1], the target named is Phosphatidylinositol 4,5-bisphosphate 3-kinase catalytic subunit alpha isoform (Homo sapiens, UniProt P42336). The test can be described thus: Inhibition of PI3Kalpha (unknown origin) measured after 1 hr by ADP-glo plus luminescence assay.
Test [2] concerns the target Phosphatidylinositol 4,5-bisphosphate 3-kinase catalytic subunit gamma isoform (Homo sapiens, UniProt P48736). Description: Inhibition of PI3Kgamma (unknown origin) measured after 1 hr by ADP-glo plus luminescence assay. In general terms: ADP-Glo first removes unused ATP, then detects ADP through luciferase.
Test [3] deals with T1, Phosphatidylinositol 4,5-bisphosphate 3-kinase catalytic subunit delta isoform (Homo sapiens, UniProt O00329).
T1 sequence (O00329 whole entry): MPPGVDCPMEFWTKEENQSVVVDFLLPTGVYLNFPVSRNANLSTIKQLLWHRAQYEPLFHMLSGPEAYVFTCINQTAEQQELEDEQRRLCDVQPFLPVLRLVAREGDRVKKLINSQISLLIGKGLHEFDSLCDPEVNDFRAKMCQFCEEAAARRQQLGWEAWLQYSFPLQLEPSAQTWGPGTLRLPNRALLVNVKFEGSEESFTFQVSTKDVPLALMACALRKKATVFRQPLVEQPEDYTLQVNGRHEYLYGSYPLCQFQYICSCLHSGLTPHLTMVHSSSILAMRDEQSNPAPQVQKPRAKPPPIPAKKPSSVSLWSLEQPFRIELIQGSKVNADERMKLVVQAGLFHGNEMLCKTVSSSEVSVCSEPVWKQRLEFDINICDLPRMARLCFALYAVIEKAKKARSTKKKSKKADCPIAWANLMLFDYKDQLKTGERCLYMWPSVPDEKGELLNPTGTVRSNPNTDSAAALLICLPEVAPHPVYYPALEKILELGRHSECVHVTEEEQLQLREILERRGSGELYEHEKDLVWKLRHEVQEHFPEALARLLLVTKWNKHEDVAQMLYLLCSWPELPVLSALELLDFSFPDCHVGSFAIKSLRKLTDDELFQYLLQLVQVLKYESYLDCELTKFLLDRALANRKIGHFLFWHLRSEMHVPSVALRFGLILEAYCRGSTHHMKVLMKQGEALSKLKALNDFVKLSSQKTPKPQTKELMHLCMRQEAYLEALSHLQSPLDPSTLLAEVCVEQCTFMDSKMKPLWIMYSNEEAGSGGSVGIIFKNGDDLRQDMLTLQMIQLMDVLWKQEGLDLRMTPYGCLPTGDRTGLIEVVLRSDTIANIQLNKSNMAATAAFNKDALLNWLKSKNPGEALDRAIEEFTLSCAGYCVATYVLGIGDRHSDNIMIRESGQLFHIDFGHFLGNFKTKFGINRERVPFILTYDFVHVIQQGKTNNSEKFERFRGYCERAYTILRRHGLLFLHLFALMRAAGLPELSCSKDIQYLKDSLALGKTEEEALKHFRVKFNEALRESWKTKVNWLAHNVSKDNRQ
Description: Inhibition of PI3Kdelta (unknown origin) measured after 1 hr by ADP-glo plus luminescence assay.

Test [4] has as its system HeLa. The test can be described thus: Anticancer activity against human HeLa cells assessed as inhibition of cell proliferation measured after 48 hrs by MTT assay. In kind it is functional, cell-based.
Test [5] deals with HepG2. Description: Anticancer activity against human HepG2 cells assessed as inhibition of cell proliferation measured after 48 hrs by MTT assay. Type of test: functional, cell-based. As to conditions: HepG2, 48 h.
The subject of test [6] is HeLa. Description: Antiproliferative activity against human HeLa cells assessed as reduction in cell viability measured upto 12 uM by MTT assay. In kind it is functional, cell-based. The conditions noted are these: dose microM <=12, time 24-72 hrs, TDE = time-dependent effect.
Test [7] has as its system HeLa. The test can be described thus: Antiproliferative activity against human HeLa cells assessed as reduction in cell viability incubated for 24 to 72 hr by MTT assay. In kind it is functional, cell-based. The conditions noted are these: dose microM <=12, time 24-72 hrs. (Tetrazolium assays rely on reduction of a dye to a coloured formazan, in cell work by metabolically active cells.)

The test system of test [8] is HeLa. Description: Inhibition of colony formation in human HeLa cells measured after 24 hrs by crystal violet staining based colony formation assay. As to conditions: dose 4-12 µM. Type of test: functional, cell-based.
For test [9], the system named is HeLa. The test can be described thus: Induction of cell cycle arrest in human HeLa cells assessed as accumulation at S phase at 4 uM after 24 hrs by RNase A/PI-staining based flow cytometric analysis (reference value: 17.17%). Type of test: functional. For orientation: In flow cytometry, cells or beads pass a laser one at a time.
Test [10] relates to HeLa. Description: Induction of cell cycle arrest in human HeLa cells assessed as accumulation at G2 phase at 8 uM after 24 hrs by RNase A/PI-staining based flow cytometric analysis (reference value: 30.62%). Type of test: functional.
Test [11] deals with HeLa. The test can be described thus: Induction of cell cycle arrest in human HeLa cells assessed as accumulation at G1 phase at 12 uM after 24 hrs by RNase A/PI-staining based flow cytometric analysis (reference value: 52.21%). Type of test: functional.
Test [12] deals with HeLa. Description: Induction of cell cycle arrest in human HeLa cells assessed as accumulation at G2 phase at 12 uM after 24 hrs by RNase A/PI-staining based flow cytometric analysis (reference value: 30.62%). Type of test: functional.
In test [13] the test system is HeLa. The test can be described thus: Induction of cell cycle arrest in human HeLa cells assessed as accumulation at S phase at 12 uM after 24 hrs by RNase A/PI-staining based flow cytometric analysis (reference value: 17.17%). In kind it is functional.
Test [14] deals with HeLa. Description: Induction of apoptosis in human HeLa cells at 4 to 12 uM incubated for 48 hrs by Hoechst 33342 staining based fluorescence microscopy. Type of test: functional, cell-based. As to conditions: dose 4-12 µM.
In test [15] the test system is HeLa. The test can be described thus: Induction of apoptosis in human HeLa cells assessed as late apoptotic cells at 4 uM measured after 24 hrs by Annexin-V/FITC and propidium iodide staining based flow cytometry (reference value: 3.4%). Type of test: functional.
In test [16] the test system is HeLa. The test can be described thus: Induction of apoptosis in human HeLa cells assessed as early apoptotic cells at 8 uM measured after 24 hrs by Annexin-V/FITC and propidium iodide staining based flow cytometry (reference value: 1.60%). In kind it is functional.
Test [17] relates to HeLa. Description: Induction of apoptosis in human HeLa cells assessed as late apoptotic cells at 8 uM measured after 24 hrs by Annexin-V/FITC and propidium iodide staining based flow cytometry (reference value: 3.4%). In kind it is functional.
The test system of test [18] is HeLa. Description: Induction of apoptosis in human HeLa cells assessed as early apoptotic cells at 12 uM measured after 24 hrs by Annexin-V/FITC and propidium iodide staining based flow cytometry (reference value: 1.60%). Type of test: functional.
Test [19] deals with HeLa. The test can be described thus: Induction of apoptosis in human HeLa cells assessed as late apoptotic cells at 12 uM measured after 24 hrs by Annexin-V/FITC and propidium iodide staining based flow cytometry (reference value: 3.4%). Type of test: functional.
Test [20] deals with HeLa. Description: Induction of apoptosis in human HeLa cells assessed as reduction in BAX level upto 12 uM by Western blot analysis. As to conditions: dose microM <=12. In kind it is functional, cell-based.
Test [21] concerns HeLa. Description: Inhibition of PI3K/AKT pathway in human HeLa cells assessed as reduction phosphorylated PI3K level upto 12 uM by Western blot analysis. The conditions noted are these: dose microM <=12. In kind it is cell-based.
Test [22] has as its system HeLa. Description: Antitumor activity against human HeLa cells xenografted in orally dosed BALB/c mouse assessed as reduction in tumor volume measured for 24 days. As to conditions: dose 5-15 mg/kg, time 24.0 day. In kind it is functional, organism-based.
Test [23] relates to Mus musculus. The test can be described thus: Reduction in p-AKT levels in BALB/c mouse tumor xenografted with human HeLa cells at 5 to 15 mg/kg, po by Western blot analysis. Type of test: functional, organism-based. The conditions noted are these: Neoplasm, dose 5-15 mg/kg.
Test [24] relates to Mus musculus. Description: Reduction in p-mTOR levels in BALB/c mouse tumor xenografted with human HeLa cells at 5 to 15 mg/kg, po by Western blot analysis. Type of test: functional, organism-based. The conditions noted are these: Neoplasm, dose 5-15 mg/kg.

Chain of Phosphatidylinositol 4,5-bisphosphate 3-kinase catalytic subunit alpha isoform (P42336 whole entry, canonical isoform): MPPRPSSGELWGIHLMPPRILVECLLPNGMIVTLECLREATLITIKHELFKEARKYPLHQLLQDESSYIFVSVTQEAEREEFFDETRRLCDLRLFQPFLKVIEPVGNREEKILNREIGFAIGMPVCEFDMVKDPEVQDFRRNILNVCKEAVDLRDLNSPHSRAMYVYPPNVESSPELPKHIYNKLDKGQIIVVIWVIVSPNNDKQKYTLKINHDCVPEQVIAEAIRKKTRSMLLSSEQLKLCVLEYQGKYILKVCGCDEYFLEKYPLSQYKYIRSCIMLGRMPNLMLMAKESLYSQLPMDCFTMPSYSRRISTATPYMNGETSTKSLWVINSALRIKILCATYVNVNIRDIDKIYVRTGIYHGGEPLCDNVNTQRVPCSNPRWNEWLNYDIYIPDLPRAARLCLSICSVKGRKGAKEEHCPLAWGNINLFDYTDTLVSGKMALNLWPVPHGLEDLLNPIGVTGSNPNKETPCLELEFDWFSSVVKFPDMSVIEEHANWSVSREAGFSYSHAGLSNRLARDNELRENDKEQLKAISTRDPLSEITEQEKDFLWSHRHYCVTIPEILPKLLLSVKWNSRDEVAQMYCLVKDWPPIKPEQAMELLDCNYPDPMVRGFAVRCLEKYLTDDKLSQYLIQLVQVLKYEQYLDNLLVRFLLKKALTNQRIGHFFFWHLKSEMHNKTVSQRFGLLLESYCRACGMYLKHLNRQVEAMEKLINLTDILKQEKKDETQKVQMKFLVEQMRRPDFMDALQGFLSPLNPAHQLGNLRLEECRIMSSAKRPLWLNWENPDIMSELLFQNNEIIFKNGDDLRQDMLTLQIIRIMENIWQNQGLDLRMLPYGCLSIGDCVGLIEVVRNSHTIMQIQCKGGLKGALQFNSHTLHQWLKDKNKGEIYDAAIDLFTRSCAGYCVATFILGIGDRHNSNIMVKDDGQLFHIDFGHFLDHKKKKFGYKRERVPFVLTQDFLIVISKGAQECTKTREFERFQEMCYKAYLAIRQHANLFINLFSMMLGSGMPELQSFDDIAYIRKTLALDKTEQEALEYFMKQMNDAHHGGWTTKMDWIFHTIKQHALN
Chain of Phosphatidylinositol 4,5-bisphosphate 3-kinase catalytic subunit gamma isoform (P48736 whole entry, canonical isoform): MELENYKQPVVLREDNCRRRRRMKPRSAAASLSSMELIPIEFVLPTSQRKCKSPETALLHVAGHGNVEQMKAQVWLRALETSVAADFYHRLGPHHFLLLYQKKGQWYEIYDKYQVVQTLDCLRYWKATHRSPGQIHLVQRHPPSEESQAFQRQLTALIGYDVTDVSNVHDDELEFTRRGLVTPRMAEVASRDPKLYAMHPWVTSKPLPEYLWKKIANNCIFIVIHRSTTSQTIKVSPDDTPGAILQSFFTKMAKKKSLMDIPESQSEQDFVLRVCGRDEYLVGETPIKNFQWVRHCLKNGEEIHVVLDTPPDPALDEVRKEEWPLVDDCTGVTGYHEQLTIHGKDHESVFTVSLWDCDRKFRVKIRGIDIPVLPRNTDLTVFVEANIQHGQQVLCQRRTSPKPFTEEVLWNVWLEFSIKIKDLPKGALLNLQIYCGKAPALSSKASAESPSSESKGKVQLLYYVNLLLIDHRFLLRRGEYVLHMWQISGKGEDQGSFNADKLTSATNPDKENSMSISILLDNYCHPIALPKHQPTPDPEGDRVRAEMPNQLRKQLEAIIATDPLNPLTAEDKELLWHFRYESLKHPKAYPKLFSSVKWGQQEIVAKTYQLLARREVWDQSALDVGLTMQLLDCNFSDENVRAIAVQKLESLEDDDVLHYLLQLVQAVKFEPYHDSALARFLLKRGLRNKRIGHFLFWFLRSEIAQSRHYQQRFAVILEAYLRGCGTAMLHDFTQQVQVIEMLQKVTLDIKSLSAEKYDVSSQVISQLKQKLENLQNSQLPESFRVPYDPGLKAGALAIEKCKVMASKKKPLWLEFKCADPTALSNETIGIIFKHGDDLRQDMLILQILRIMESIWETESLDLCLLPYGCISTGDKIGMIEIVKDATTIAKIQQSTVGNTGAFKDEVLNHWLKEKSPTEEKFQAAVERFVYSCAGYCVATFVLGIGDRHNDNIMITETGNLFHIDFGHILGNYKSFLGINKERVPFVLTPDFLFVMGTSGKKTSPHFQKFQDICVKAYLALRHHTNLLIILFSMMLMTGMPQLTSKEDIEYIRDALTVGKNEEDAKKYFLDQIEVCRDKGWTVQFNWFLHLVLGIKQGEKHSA

As for `O=S(=O)(c1ccc(O)cc1)N1CCN(c2nc(NCCN3CCOCC3)nc(N3CCOCC3)n2)CC1`, the IC50 in [1] was found to be 3.41 nM; in test [2], 24.6 nM; in test [3], 35.3 nM; in test [4] it was 2210 nM; in [5], 12200 nM. Besides, the Activity result in test [6] was “Tde”; in test [7], “Dose-dependent effect”; in test [8], “Dose-dependent effect”; in test [9], 20.44%; in test [10], 15.43%; in [11], 75.03%. In addition, the Activity in test [12] was determined as 14.32%; in test [13], 10.65%; in test [15], 5.07%; in [16], 1.84%; in test [17], 16.94%; in test [18], 2.1%. In addition, the Activity in test [19] was 17.98%; in [22], “Dose-dependent effect”. For the same compound, the result in test [14] and in test [20] was Active. Moreover, in [21], the inhibition result is “Dose-dependent effect”. The inhibition entry in test [23] and in [24] was “Active” throughout.
